Data taken from ChEMBL document CHEMBL3886578, “Pharmaceutical composition for treating diabetes” (2016).

Target: T1, Glycogen [starch] synthase, muscle (Homo sapiens, UniProt P13807)
T1 sequence (P13807 whole entry): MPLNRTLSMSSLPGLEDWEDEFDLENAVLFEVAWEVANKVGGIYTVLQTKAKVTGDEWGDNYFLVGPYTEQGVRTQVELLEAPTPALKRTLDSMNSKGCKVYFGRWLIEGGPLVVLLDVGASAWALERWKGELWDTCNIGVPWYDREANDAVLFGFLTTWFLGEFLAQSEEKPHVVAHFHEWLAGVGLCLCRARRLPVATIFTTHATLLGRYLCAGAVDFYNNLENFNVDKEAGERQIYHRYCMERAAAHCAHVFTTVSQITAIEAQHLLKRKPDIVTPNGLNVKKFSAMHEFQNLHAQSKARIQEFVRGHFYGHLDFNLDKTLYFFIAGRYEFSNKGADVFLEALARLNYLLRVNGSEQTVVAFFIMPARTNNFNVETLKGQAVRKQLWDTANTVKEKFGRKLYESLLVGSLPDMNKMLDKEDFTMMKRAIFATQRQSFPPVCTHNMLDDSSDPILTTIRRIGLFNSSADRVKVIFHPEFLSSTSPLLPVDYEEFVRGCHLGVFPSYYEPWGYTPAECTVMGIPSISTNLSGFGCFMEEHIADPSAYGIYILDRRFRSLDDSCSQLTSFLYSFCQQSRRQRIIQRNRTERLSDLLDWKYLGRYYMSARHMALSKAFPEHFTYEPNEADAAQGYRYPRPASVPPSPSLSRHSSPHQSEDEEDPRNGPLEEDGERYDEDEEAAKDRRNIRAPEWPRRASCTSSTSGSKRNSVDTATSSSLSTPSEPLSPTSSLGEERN
Test: Glycogen Synthase Activity Assay: To a polystyrene 96-well plate, a solution containing 30 mM glycylglycine (pH 7.3), 40 mM KCl, 20 mM MgCl2, 9.2% DMSO containing one of the test compounds at various concentrations, and 10 mM glucose-6-phosphate (Sigma-Aldrich Corporation, G7879) was added by 12 uL/well. Next, a substrate solution containing 30 mM glycylglycine (pH 7.3), 4.3 mg/mL of glycogen (Sigma-Aldrich Corporation, G8876), 21.6 mM UDP-glucose (Sigma-Aldrich Corporation, U4625), 21.6 mM phosphoenolpyruvic acid (Sigma-Aldrich Corporation, P0564), and 4.05 mM NADH (Sigma-Aldrich Corporation, N8129) was added by 18 uL/well. Further, an enzyme solution containing 50 mM Tris-HCl (pH 8.0), 27 mM DTT (Nacalai Tesque, Inc., 14128-04), 0.2 mg/mL of bovine serum albumin, 0.17 mg/mL of the glycogen synthase, 1.5 uL of a pyruvate kinase/lactate dehydrogenase solution (Sigma-Aldrich Corporation, P0294) was added by 18 uL/well to prepare a reaction solution. After the reaction solution was incubated (at 30° C. for 25 minutes for Examples 1 to 10, at 37° C. for 20 minutes for Examples 11 to 75), the absorbance at 340 nm was measured using Benchmark Plus (Bio-Rad Laboratories, Inc.).

| EC50 [µM] | SMILES |
| --- | --- |
| 0.78 | O=C(O)[C@@H]1CCCN1C(=O)c1cccc(COc2ccc(-c3cc(F)cc4c3OCC=C4)cc2)c1 |
| 0.1 | O=C(O)[C@@H]1CCCN1C(=O)c1cccc(COc2ccc(-c3cc(F)c(F)c4c3OCC=C4)cc2)c1 |
